Laboratory results: the Kinase Knowledgebase extract (Sharma et al. 2016)
One block for each molecule: values may come before it.

Assays:
EGFR (human) [1] = target: EGFR (human) (UniProt P00533); conditions: A431
EGFR (human) [2] = target: EGFR (human) (UniProt P00533); conditions: a431
EGFR [3] = target: EGFR (UniProt P00533)
EGFR (human) [4] = target: EGFR (human) (UniProt P00533); conditions: a431; remark: listed apart in the source
EGFR (human) [5] = target: EGFR (human) (UniProt P00533); conditions: a431; remark: listed apart in the source
EGFR [6] = target: EGFR (UniProt P00533); remark: listed apart in the source
MAPK14 [7] = target: MAPK14 (UniProt Q16539); experiment: p38 Binding Asssy
MAPK14, sequence (Q16539 whole entry, looked up): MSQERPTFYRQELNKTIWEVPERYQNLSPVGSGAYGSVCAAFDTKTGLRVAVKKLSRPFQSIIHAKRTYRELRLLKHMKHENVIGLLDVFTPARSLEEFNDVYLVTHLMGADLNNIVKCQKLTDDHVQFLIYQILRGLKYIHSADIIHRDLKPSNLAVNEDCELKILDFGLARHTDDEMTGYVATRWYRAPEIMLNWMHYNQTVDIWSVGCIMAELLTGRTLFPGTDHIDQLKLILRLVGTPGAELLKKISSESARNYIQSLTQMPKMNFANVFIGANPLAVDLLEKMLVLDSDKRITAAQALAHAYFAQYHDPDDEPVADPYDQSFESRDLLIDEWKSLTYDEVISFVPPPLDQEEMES

ROCK2 = ROCK2 (UniProt O75116); experiment: Inhibition of COS cell Derived Rho kinase (ROCKII)
EGFR (human) [8] = target: EGFR (human) (UniProt P00533); conditions: f/l herc cells
EGFR [9] = target: EGFR (UniProt P00533); remark: listed apart in the source
EGFR (human) [10] = target: EGFR (human) (UniProt P00533); conditions: a431, concentration not given here
EGFR (mouse) [11] = target: EGFR (mouse) (UniProt P00533); conditions: nih3t3/c7
EGFR (human) [12] = target: EGFR (human) (UniProt P00533); conditions: a431; remark: listed apart in the source
MAPK14 [13] = target: MAPK14 (UniProt Q16539); experiment: In Vitro p38 Inhibition
MAP2K1;MAPK14 (mice) = experiment: Inhibition of LOVO Cell Proliferation by Xenograft Model; conditions: dose or concentration not given here
MAP2K1;MAPK14 (human) [14] = target: MAP2K1;MAPK14 (human) (UniProt Q16539); experiment: Inhibition of BXPC3 Cell Proliferation by MTT Assay; conditions: bxpc-3 pancreatic
MAP2K1;MAPK14 (human), sequence (Q16539 whole entry, looked up): as above

MAP2K1;MAPK14 (human) [15] = target: MAP2K1;MAPK14 (human) (UniProt Q16539); experiment: Inhibition of LnCAP Cell Proliferation by MTT Assay
EGFR [16] = target: EGFR (UniProt P00533); remark: listed apart in the source
CDK2 [17] = target: CDK2 (UniProt P24941); experiment: Enzyme Assay
CDK2 [18] = target: CDK2 (UniProt P24941); experiment: Enzyme Assay; remark: listed apart in the source
CDK2 [19] = target: CDK2 (UniProt P24941); experiment: Enzyme Assay; remark: listed apart in the source
EGFR (human) [20] = target: EGFR (human) (UniProt P00533); conditions: mkn45, concentration not given here
EGFR (mouse) [21] = target: EGFR (mouse) (UniProt P00533); conditions: swiss 3t3 fibroblast
EGFR [22] = target: EGFR (UniProt P00533); remark: listed apart in the source
EGFR (human) [23] = target: EGFR (human) (UniProt P00533); conditions: a431; remark: listed apart in the source
EGFR [24] = target: EGFR (UniProt P00533); remark: listed apart in the source
EGFR (human) [25] = target: EGFR (human) (UniProt P00533); conditions: a431; remark: listed apart in the source
EGFR (human) [26] = target: EGFR (human) (UniProt P00533); conditions: a431; remark: listed apart in the source
EGFR [27] = target: EGFR (UniProt P00533); remark: listed apart in the source
CDK2 [28] = target: CDK2 (UniProt P24941); experiment: Enzyme Assay; conditions: concentration not given here
EGFR (murine) [29] = target: EGFR (murine) (UniProt P00533); conditions: f/l-herc
EGFR (murine), sequence (P00533 whole entry, looked up): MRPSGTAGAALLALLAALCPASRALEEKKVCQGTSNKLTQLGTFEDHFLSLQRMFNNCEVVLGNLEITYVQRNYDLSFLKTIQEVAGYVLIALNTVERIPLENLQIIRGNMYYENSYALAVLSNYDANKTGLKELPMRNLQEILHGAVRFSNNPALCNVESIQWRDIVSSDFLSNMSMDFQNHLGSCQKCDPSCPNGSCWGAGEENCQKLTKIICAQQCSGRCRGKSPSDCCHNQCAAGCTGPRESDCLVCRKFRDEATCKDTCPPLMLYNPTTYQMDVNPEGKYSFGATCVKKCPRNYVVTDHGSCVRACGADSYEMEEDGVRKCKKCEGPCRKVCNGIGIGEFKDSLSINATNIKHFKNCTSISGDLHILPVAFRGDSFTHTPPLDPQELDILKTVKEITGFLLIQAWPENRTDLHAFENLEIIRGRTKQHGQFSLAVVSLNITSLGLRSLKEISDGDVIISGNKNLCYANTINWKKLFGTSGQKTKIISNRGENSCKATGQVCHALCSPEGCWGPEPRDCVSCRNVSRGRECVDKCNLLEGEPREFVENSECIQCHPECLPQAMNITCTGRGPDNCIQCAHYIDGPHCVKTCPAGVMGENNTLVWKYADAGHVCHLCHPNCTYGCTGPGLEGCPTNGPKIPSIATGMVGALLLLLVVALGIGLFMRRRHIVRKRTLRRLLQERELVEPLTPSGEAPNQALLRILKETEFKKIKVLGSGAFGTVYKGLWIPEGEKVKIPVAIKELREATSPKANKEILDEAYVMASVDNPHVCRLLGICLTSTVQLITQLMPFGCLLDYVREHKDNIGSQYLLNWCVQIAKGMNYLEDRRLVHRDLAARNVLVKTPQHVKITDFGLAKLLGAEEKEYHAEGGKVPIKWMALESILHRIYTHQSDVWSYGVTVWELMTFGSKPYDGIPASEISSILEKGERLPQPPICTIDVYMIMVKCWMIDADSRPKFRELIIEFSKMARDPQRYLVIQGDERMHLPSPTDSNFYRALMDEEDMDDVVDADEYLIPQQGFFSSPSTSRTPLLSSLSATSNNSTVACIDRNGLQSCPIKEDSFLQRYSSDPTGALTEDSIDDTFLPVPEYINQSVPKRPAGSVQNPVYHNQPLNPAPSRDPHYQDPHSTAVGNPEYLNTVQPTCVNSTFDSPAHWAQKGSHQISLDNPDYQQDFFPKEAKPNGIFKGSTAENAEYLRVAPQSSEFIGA

EGFR (murine) [30] = target: EGFR (murine) (UniProt P00533); conditions: nih3t3
EGFR [31] = target: EGFR (UniProt P00533); remark: listed apart in the source

EGFR (human), sequence (P00533 whole entry, looked up): as above
EGFR, sequence (P00533 whole entry, looked up): as above

- IC50 (EGFR (human) [1]): 0.2 µM
SMILES: c1ccc(COc2ccc(Nc3ncnc4ccc(-c5ccc(CNCc6cccnc6)o5)cc34)cc2)cc1

- IC50 (EGFR (human) [2]): 0.1 µM
SMILES: N#Cc1cnc2ccc(NC(=O)C#CCN3CCSCC3)cc2c1Nc1cccc(Br)c1

- IC50 (EGFR [3]): 8.7 µM
SMILES: CN1CCN(CCCNc2ncc3cc(-c4c(Cl)cccc4Cl)c(=O)n(C)c3n2)CC1

- IC50 (EGFR (human) [4]): 1.31 µM
- IC50 (EGFR (human) [5]): 5.3 µM
SMILES: COc1cc2ncnc(N[C@H](COC(C)=O)c3ccccc3)c2cc1OC

SMILES: N#C/C(=C\c1ccc(O)c(O)c1)C(=O)NCCCCc1ccccc1
- IC50 (EGFR [6]): 5 µM

- IC50 (MAPK14 [7]): 0.046 µM
SMILES: [N-]=[N+]=Nc1cccc(-c2ncn(CCCNC(=O)c3ccc(I)cc3)c2-c2ccncc2)c1

- IC50 (ROCK2): 0.048 µM
SMILES: CC(N)[C@H]1CC[C@H](C(=O)Nc2ccnc3[nH]ccc23)CC1 (stereo partly drawn)

- IC50 (EGFR (human) [8]): 0.009 µM
SMILES: CCC(=O)CN(C)C/C=C/C(=O)Nc1cc2c(N[C@H](C)c3ccccc3)ncnc2cc1OC

- IC50 (EGFR [9]): 0.8 µM
SMILES: COc1cccc(-c2cn(-c3ccc(CC(=O)NCCO)cc3)c3ncncc23)c1

- activity (EGFR (human) [10]): 0%
SMILES: C=CC(=O)Nc1ccc2ncnc(Nc3ccc(OCc4ccccc4)cc3)c2c1

- IC50 (EGFR (mouse) [11]): > 10 µM
SMILES: Cc1nc2cc3nc(-c4ccccc4)[nH]c3cc2nc1C

- IC50 (EGFR (human) [12]): 37.5 µM
SMILES: CNC(=O)c1ccc(S(=O)(=O)Oc2ccc(/C=C/[N+](=O)[O-])cc2)cc1

- IC50 (MAPK14 [13]): > 30 µM
SMILES: O=C(CNS(=O)(=O)c1ccc(CNC(=O)c2ccc(Cl)cc2)s1)NCCNc1ccc(C(F)(F)F)cn1

- IC50 (MAP2K1;MAPK14 (human) [14]): 0.007 µM
- IC50 (MAP2K1;MAPK14 (human) [15]): 0.045 µM
SMILES: CCN1CCN(CCCOc2cc3ncc(C#N)c(Nc4ccc(Sc5nccn5C)c(Cl)c4)c3cc2OC)CC1
- T/C (MAP2K1;MAPK14 (mice)): 44%

- IC50 (EGFR [16]): 0.15 µM
- IC50 (EGFR (human) [2]): 1.2 µM
SMILES: CO[C@@H](C#CC(=O)Nc1ccc2ncc(C#N)c(Nc3cccc(Br)c3)c2c1)CN1CCCC1

- IC50 (CDK2 [17]): > 250 µM
- IC50 (CDK2 [18]): > 50 µM
- IC50 (CDK2 [19]): > 50 µM
SMILES: O=C1c2ccccc2-[n+]2ccc3c([nH]c4ccccc43)c21

SMILES: Nc1c2c(nc3ccccc13)-c1cccnc1CC2
- cell viability (EGFR (human) [20]): > 90%

SMILES: O=C(O)Cc1c(SSc2[nH]c3ccccc3c2CC(=O)O)[nH]c2ccccc12
- IC50 (EGFR (mouse) [21]): > 50 µM

- IC50 (EGFR [22]): 12.5 µM
SMILES: C=CC(=O)c1ccc2ccccc2c1

- IC50 (CDK2 [18]): > 100 µM
- IC50 (CDK2 [19]): > 100 µM
SMILES: Cn1c2ccccc2c2cc[n+]3c(c21)C(=O)c1ccccc1-3

SMILES: N#CC(C#N)=Cc1cc(O)c(O)c(O)c1
- Ki (EGFR (human) [23]): 1 µM
- IC50 (EGFR [24]): 50 µM

- Ki (EGFR (human) [25]): 25 pM
SMILES: Oc1ccc2ncnc(Nc3cccc(Br)c3)c2c1

- IC50 (EGFR [22]): 3.13 µM
SMILES: CC(C)N(CCC(=O)c1ccc2ccccc2c1)Cc1ccccc1

- IC50 (EGFR (mouse) [11]): > 100 µM
SMILES: Cc1cnc2cc3nc(-c4ccccc4)[nH]c3c(C)c2n1

- IC50 (EGFR (human) [26]): 0.0096 µM
- IC50 (EGFR [27]): 0.0048 µM
SMILES: Brc1cccc(Nc2ncnc3cc4[nH]cc(CNN5CCOCC5)c4cc23)c1

SMILES: C[S+]([O-])c1ccc(-c2nc(-c3ccc(F)cc3)c(-c3ccncc3)[nH]2)cc1 (stereo not drawn)
- activity (CDK2 [17]; concentration not given here): 91%
- activity (CDK2 [28]): 112%

- IC50 (EGFR (human) [26]): 0.077 µM
SMILES: Brc1cccc(Nc2ncnc3cc4c(ccn4CCCN4CCOCC4)cc23)c1

- IC50 (EGFR (murine) [29]): > 10 µM
SMILES: O[C@H]1CC[C@H](Nc2ncc3ncnc(Nc4ccc5c(c4)-c4ccccc4C5)c3n2)CC1

- IC50 (EGFR (murine) [30]): > 100 µM
SMILES: N#Cc1ccc(NC(=S)Nc2ccc(S(=O)(=O)N3CCCCC3)cc2)cc1

- IC50 (EGFR [16]): 0.81 µM
SMILES: C=CC(=O)Nc1cc2c(Nc3cccc(Br)c3)c(C#N)cnc2cc1OC

- activity (EGFR (human) [10]): 0%
SMILES: C=CC(=O)Nc1ccc2ncnc(Nc3ccc(Oc4ccccc4)cc3)c2c1

- IC50 (EGFR [31]): 0.05 µM
SMILES: Cc1cc(C)c(N2CCN(C)CC2)c(C)c1-c1nc(-c2ccncc2)c(-c2ccc(Cl)cc2)[nH]1

- IC50 (EGFR (murine) [30]): > 100 µM
SMILES: CC(C)S(=O)(=O)c1csc(NC(=O)Nc2ccc(C(C)(C)C)cc2)c1Cl
